The results in this text go back to ChEMBL document CHEMBL4261615, “Design, synthesis, biological evaluation and cellular imaging of imidazo[4,5-b]pyridine derivatives as potent and selective TAM inhibitors” (Bioorg Med Chem, 2018).

Calls of active or inactive are those of the source. The rule behind the calls is not given here.

The target in experiment [1] is T1, Tyrosine-protein kinase receptor TYRO3 (Homo sapiens, UniProt Q06418).
T1 sequence (Q06418 whole entry): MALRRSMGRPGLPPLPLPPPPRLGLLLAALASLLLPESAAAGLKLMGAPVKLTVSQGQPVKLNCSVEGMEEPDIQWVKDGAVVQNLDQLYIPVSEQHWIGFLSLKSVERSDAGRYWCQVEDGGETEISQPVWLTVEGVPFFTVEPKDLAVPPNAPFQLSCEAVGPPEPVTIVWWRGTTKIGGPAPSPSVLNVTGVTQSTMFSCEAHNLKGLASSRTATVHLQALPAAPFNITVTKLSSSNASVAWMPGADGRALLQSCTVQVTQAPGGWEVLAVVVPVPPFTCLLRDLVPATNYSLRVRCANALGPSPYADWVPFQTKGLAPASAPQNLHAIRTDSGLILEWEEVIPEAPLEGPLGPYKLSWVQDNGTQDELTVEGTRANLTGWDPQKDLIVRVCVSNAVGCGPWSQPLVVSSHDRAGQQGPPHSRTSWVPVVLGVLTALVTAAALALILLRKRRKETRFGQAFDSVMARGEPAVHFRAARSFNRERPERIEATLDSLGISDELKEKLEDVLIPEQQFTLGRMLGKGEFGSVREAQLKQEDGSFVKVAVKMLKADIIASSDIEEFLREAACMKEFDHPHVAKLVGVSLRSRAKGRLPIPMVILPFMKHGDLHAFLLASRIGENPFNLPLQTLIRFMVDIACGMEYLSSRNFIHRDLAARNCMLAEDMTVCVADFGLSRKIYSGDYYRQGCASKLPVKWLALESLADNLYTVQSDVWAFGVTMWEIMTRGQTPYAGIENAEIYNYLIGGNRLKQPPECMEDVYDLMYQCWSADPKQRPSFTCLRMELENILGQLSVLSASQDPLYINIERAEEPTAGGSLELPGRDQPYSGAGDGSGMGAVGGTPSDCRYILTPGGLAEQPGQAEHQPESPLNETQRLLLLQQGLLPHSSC
Kind of experiment: Inhibition of recombinant GST-tagged human Tyro3 (451 to 890 residues) cytoplasmic domain expressed in Baculovirus expression system using poly (Glu-Ala-Tyr) peptide as substrate after 5 mins in presence of ADP by fluorescence analysis.

Experiment [2] deals with T2, Tyrosine-protein kinase Mer (Homo sapiens, UniProt Q12866).
T2 sequence (Q12866 whole entry): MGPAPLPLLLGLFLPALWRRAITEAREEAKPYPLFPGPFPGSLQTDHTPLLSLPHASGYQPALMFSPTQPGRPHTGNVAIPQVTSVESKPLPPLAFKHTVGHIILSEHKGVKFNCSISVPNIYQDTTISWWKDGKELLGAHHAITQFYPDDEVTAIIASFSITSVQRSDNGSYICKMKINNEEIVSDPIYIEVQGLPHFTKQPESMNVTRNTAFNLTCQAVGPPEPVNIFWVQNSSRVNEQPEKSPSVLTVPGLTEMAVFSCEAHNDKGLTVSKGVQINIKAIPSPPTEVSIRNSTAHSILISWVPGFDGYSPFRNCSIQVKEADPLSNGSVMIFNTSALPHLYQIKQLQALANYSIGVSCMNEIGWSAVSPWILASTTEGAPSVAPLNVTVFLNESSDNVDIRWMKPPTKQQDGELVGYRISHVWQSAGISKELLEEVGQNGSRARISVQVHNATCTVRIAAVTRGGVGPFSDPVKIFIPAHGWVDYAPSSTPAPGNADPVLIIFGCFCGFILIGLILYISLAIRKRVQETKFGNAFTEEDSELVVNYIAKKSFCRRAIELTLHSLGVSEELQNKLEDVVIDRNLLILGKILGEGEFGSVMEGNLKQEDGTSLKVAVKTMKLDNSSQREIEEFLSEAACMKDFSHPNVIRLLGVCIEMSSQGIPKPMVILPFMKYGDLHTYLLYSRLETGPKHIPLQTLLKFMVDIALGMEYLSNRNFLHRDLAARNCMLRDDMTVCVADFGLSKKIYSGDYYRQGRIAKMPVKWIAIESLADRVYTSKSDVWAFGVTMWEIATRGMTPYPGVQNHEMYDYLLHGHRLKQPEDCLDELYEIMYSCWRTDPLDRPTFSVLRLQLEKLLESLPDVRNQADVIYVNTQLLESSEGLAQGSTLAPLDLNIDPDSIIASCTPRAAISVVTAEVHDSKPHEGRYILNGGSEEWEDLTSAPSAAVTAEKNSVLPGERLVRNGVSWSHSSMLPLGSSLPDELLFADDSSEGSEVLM
Kind of experiment: Inhibition of recombinant GST-tagged human Mer (578 to 872 residues) cytoplasmic domain expressed in Baculovirus system using poly (Glu-Ala-Tyr) peptide as substrate after 5 mins in presence of ADP by fluorescence analysis.

Experiment [3] addresses Tyrosine-protein kinase ABL1 (Homo sapiens) (UniProt P00519). In words: Binding affinity to human wild type ABL1 (229 to 512 residues) expressed in mammalian expression system assessed as fraction of unbound kinase to substrate at 0.1 uM after 1 hr by KinomeScan assay.
For experiment [4], the target named is T3, Aurora kinase A (Homo sapiens) (UniProt O14965).
T3 sequence (whole entry): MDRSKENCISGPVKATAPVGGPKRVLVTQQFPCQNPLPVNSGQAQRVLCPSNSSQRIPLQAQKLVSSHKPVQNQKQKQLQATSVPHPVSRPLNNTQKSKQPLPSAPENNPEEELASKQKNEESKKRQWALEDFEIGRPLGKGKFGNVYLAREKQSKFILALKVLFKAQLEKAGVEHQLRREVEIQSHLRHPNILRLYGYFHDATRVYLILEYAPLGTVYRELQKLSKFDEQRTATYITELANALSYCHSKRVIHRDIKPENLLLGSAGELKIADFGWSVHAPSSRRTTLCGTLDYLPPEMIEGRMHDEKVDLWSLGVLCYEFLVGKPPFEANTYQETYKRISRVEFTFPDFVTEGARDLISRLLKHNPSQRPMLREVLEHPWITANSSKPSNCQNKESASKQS
Kind of experiment: Binding affinity to wild-type human partial length AURKA (E122 to K401 residues) expressed in mammalian expression system assessed as fraction of unbound kinase to substrate at 1 uM after 1 hr by KinomeScan assay.

In experiment [5] the target is Epidermal growth factor receptor (Homo sapiens) (UniProt P00533). In words: Binding affinity to partial length wild type human EGFR (R669 to V1011 residues) expressed in bacterial expression system assessed as fraction of unbound kinase to substrate at 0.1 uM after 1 hr by KinomeScan assay.
Epidermal growth factor receptor (Homo sapiens), sequence (P00533 whole entry, the tested form may be a part): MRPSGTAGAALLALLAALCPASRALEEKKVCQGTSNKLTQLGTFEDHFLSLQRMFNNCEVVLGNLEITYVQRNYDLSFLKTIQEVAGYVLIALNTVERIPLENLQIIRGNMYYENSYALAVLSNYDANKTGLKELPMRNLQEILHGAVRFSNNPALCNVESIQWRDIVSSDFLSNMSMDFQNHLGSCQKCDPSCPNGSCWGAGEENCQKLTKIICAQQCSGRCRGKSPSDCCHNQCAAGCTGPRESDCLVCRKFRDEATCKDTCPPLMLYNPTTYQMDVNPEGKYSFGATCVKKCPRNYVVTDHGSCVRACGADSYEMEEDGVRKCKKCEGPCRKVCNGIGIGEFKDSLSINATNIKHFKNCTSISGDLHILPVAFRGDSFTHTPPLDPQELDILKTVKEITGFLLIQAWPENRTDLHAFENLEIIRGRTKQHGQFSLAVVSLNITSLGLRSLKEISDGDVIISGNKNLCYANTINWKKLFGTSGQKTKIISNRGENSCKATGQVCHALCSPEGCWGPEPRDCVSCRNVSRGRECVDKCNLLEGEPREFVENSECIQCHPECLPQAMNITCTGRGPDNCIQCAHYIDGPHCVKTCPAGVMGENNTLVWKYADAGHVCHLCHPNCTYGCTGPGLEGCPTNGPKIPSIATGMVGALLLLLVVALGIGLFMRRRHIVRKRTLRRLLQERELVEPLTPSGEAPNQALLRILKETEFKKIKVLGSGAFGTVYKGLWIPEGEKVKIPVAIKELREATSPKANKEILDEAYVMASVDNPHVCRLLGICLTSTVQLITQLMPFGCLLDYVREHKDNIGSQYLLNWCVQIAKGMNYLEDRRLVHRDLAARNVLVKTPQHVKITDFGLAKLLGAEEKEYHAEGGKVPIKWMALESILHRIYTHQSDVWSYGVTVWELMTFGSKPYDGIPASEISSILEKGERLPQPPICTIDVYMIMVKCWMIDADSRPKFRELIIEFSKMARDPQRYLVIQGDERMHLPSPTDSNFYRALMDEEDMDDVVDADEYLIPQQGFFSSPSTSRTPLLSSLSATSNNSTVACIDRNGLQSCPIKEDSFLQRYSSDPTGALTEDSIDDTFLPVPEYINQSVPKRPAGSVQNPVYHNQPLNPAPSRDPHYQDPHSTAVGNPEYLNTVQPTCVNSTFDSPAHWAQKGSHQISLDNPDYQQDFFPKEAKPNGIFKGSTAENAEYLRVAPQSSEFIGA
Experiment [6] has the same target. Kind of experiment: Binding affinity to partial length wild type human EGFR (R669 to V1011 residues) expressed in bacterial expression system assessed as fraction of unbound kinase to substrate at 1 uM after 1 hr by KinomeScan assay.
Experiment [7] addresses Fibroblast growth factor receptor 1 (Homo sapiens) (UniProt P11362). Kind of experiment: Binding affinity to wild-type human partial length FGFR1 (P357 to V669 residues) expressed in bacterial expression system assessed as fraction of unbound kinase to substrate at 0.1 uM after 1 hr by KinomeScan assay.
A further experiment relates to RT-112. Kind of experiment: Antiproliferative activity against human RT112 cells after 72 hrs by CellTiter-Glo assay. The experiment is classed as functional, cell-based. (ATP-based viability assays read luminescence as a measure of living cells.)
The next experiment concerns A549. Kind of experiment: Antiproliferative activity against human A549 cells after 72 hrs by CellTiter-Glo assay. The format is functional, cell-based.

Fibroblast growth factor receptor 1 (Homo sapiens), sequence (P11362 22-822 limits assumed): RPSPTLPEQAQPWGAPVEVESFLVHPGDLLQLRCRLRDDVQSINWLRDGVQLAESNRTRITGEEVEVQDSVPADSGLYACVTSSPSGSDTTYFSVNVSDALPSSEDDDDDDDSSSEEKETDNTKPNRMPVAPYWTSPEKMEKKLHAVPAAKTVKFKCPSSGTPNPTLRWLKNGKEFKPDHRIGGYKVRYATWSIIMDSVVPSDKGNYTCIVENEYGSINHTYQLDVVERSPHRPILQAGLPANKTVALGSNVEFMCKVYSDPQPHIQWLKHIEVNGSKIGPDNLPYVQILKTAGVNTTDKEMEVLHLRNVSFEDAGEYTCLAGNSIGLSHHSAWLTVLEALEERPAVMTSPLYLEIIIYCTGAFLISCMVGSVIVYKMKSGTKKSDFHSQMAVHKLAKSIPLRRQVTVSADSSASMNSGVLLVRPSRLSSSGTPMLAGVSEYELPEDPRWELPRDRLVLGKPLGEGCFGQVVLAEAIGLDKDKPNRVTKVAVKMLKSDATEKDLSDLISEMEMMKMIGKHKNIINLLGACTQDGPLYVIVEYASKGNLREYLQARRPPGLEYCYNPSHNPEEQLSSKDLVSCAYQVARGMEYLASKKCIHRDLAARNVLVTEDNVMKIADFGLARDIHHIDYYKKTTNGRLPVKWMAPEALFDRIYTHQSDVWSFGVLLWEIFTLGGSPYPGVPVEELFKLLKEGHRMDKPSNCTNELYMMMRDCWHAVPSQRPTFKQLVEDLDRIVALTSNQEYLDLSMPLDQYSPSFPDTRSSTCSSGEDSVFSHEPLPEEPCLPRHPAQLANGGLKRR
Tyrosine-protein kinase ABL1 (Homo sapiens), sequence (P00519 whole entry, the tested form may be a part): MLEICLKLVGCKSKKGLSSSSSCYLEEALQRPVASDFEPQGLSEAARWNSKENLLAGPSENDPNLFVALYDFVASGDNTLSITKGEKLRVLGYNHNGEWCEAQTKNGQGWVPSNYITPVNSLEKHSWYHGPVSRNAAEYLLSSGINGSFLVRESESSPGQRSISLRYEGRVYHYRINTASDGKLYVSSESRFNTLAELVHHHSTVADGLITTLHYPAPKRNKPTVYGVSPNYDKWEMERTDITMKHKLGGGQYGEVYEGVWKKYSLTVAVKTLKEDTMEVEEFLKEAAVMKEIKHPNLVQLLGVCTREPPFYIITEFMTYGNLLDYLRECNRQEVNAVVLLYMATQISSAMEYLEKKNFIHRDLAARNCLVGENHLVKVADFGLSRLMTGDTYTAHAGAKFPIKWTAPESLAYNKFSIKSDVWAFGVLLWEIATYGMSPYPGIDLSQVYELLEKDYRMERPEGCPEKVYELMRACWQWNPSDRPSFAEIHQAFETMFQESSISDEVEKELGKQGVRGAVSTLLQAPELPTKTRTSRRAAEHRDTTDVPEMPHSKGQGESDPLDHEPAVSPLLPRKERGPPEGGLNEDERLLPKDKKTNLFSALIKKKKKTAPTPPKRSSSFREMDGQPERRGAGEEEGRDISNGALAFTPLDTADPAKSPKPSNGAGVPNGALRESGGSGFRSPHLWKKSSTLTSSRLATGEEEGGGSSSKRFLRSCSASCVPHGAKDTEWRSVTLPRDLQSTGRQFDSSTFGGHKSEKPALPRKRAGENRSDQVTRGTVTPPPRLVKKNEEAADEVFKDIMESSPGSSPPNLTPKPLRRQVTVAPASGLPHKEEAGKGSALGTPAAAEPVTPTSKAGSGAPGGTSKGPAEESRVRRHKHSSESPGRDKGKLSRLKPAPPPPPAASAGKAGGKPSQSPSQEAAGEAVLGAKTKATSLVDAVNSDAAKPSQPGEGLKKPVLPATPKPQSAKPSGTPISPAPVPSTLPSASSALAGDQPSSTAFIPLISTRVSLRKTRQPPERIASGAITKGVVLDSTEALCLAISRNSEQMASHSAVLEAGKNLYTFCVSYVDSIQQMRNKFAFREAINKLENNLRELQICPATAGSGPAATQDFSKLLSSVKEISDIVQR

On to `O=C(Nc1ccc(Oc2ccnc3[nH]cnc23)c(F)c1)c1cccn(-c2ccc(F)cc2)c1=O`, for which the values for the IC50 in experiment [1] and in experiment [2] were 690 nM and 90 nM, respectively. The Activity came out at 2% in [3]; 2% in experiment [4]; 0% in experiment [5]; 0% in experiment [6]; 1% in experiment [7]. In addition, the outcome in the experiment with RT-112 and with A549 was inactive.

In the case of `O=C(Nc1ccc(Oc2c(Br)cnc3[nH]cnc23)c(F)c1)c1cccn(-c2ccc(F)cc2)c1=O`, the IC50 came to 270 nM in experiment [1] and 9 nM in [2]. For the same compound, the Activity was 0% in experiment [3]; 9% in experiment [4]; 0% in experiment [5]; 0% in experiment [6]; 7% in experiment [7].

Regarding `Cc1cnc2[nH]cnc2c1Oc1ccc(NC(=O)c2cccn(-c3ccc(F)cc3)c2=O)cc1F`, the IC50 in experiment [1] and in [2] was more than 100000 nM in each case. For the same compound, the Activity amounted to 1% in [3]; 6% in experiment [4]; 1% in experiment [5]; 0% in experiment [6]; 8% in experiment [7]. The result with RT-112 and in the experiment on A549 was inactive.

Regarding `CC(C)c1nc2c(Oc3ccc(NC(=O)c4cccn(-c5ccc(F)cc5)c4=O)cc3F)ccnc2[nH]1`, the half-inhibitory concentration (IC50) in experiment [1] worked out at 4700 nM; in experiment [2], 40 nM. In addition, the Activity in experiment [3] was 1%; in experiment [4], 2%; in experiment [5], 2%; in experiment [6], 0%; in experiment [7], 7%. Also, the result in the experiment with RT-112 and in the experiment with A549 was inactive.

Usually IC50 stands for the concentration that gives 50% inhibition.
